Data as given in US4355026A, “4-Demethoxy,11-deoxy anthracycline derivatives” (priority 1980, dated 1982).
Values after ≈ are worked out from the molar mass of the structure shown. Where two headings read alike, the source gives them in different places.

Assays:
L1210 leukemia cells [1] = test: Inhibitory effect on growth of L1210 cultivated leukemic cells of mice; assay type: cell-based; conditions: Mus musculus, RPMI 1640, 20% calf serum, 37° C.
Procedure: (§1) A. Inhibitory Effect on Growth, DNA Synthesis and RNA Synthesis of L1210 Cultivated Leukemic Cells of Mice
For example, L1210 cells were inoculated in a concentration of 5×10^4 cells/ml in an RPMI 1640 culture medium (Roswell Park Memorial Institute 1640) containing 20% calf serum and, simultaneously, representative compounds of the present invention were added in a concentration of 0.1 and 0.5 μg/ml. The cells were cultivated in a CO2 generator at 37° C. The 50% growth inhibitory concentration with respect to a control group was then determined.

[2] = tested on: Mycobacterium smegmatis ATCC 607; test: MIC on nutrient agar medium; assay type: cell-based; conditions: Mycolicibacterium smegmatis, ATCC607
Text: (§2) The compounds of formula I provided by the present invention are also characterized by their antimicrobial activity. Table 3 summarizes the minimum inhibitory concentrations (MIC) of representative compounds of the present invention against various microorganisms on a nutrient agar medium.

[3] = tested on: Corynebacterium bovis 1810; test: MIC on nutrient agar medium; assay type: cell-based
Text: as §2

[4] = tested on: Klebsiella pneumonia PCI 602; test: MIC on nutrient agar medium; assay type: cell-based; conditions: Klebsiella pneumoniae, PCI602
Text: as §2

Escherichia coli NIHJ = test: MIC on nutrient agar medium; assay type: cell-based
Text: as §2

Candida albicans 3147 = test: MIC on nutrient agar medium; assay type: cell-based
Text: as §2

[5] = tested on: Bacillus subtilis NRRB- 558; test: MIC on nutrient agar medium; assay type: cell-based; conditions: NRRB558
Text: as §2

Sarcina lutea PCI 1001 = test: MIC on nutrient agar medium; assay type: cell-based; conditions: Micrococcus luteus, PCI1001
Text: as §2

[6] = tested on: Bacillus subtilis PCI 219; test: MIC on nutrient agar medium; assay type: cell-based; conditions: PCI219
Text: as §2

[7] = tested on: Bacillus cereus ATCC 10702; test: MIC on nutrient agar medium; assay type: cell-based; conditions: ATCC10702
Text: as §2

[8] = tested on: Staphylococcus aureus FDA 209; test: MIC on nutrient agar medium; assay type: cell-based; conditions: FDA209
Text: as §2

[9] = tested on: Staphylococcus aureus smith; test: MIC on nutrient agar medium; assay type: cell-based
Text: as §2

[10] = tested on: Microccus lysodeikticus IFQ 3333; test: MIC on nutrient agar medium; assay type: cell-based
Text: as §2

Microccus flavus FDA 16 = test: MIC on nutrient agar medium; assay type: cell-based
Text: as §2

[11] = tested on: Pseudomonas aeruginosa A3; test: MIC on nutrient agar medium; assay type: cell-based
Text: as §2

Bacillus megatherium APF = test: MIC on nutrient agar medium; assay type: cell-based
Text: as §2

[12] = tested on: Shigella flexneri 46 JS 11811; test: MIC on nutrient agar medium; assay type: cell-based; conditions: 46JS11811
Text: as §2

Salmonella typhi T - 63 = test: MIC on nutrient agar medium; assay type: cell-based; conditions: Salmonella enterica
Text: as §2

[13] = tested on: L1210 leukemia cells, DNA synthesis; test: Inhibition of DNA synthesis (14C-thymidine incorporation) of L1210 cultivated leukemic cells; assay type: cell-based; conditions: Mus musculus, L1210, 1 h, 14C-thymidine, 60 minutes, 37° C.; for IC50: read-out: IC50 DNA synthesis; for IC90: 90% inhibition, read-out: IC90 DNA synthesis
Procedure: as §1
(§3) Separately, the above L1210 cultivated cells were suspended in a concentration of 5×10^5 cells/ml in an RPMI 1640 medium containing 10% calf serum and cultivated for 1 to 2 hours in a CO2 incubator at 37° C. Then, representative test compounds were added in various concentrations, and 15 minutes later, ^14 C-uridine (0.05 μCi/ml) or ^14 C-thymidine (0.05 μCi/ml) were added. The cells were incubated at 37° C. for 60 minutes. A 10% aqueous trichloroacetic acid solution was added to the incubation medium to stop the reaction and simultaneously precipitate acid-insoluble matter. The acid-insoluble matter was washed three times with a 5 to 10% aqueous solution of trichloroacetic acid and then dissolved in formic acid. The radioactivity of the acid-insoluble matter was measured. From the ratio of incorporated radiation to that of a control group, the concentrations which inhibited radiation by 10%, 50% and 90% respectively were measured.

[14] = tested on: L1210 leukemia cells, RNA synthesis; test: Inhibition of RNA synthesis (14C-uridine incorporation) of L1210 cultivated leukemic cells; assay type: cell-based; conditions: Mus musculus, L1210, 1 h, 14C-uridine, 60 minutes, 37° C.; for IC50: read-out: IC50 RNA synthesis; for IC90: 90% inhibition, read-out: IC90 RNA synthesis
Procedure: as §1, §3

L1210 leukemia cells [15] = test: Antitumor activity on CDFI mouse leukemia induced by mouse L1210 leukemia cells; assay type: in vivo, CDFI mice; design: key to Toxicity: *: Toxicity-
Procedure: B. Antitumor Activity on CDFI Mouse Leukemia Induced by Mouse L1210 Leukemia cells
L1210 leukemia cells of mice were intraperitoneally transplanted in an amount of 1×10^5 cells/mouse in CDFI mice. Starting 24 hours after the transplantation, each of the test compounds was intraperitoneally administered to the mice for 10 consecutive days. the survival rate (T/C, %) was calculated in comparison with a control group (to which physiological saline was administered).

[16] = L1210, 24 h, 1 day later, read-out: IC50 growth, 1 day later
[17] = L1210, 48 h, 2 days later, read-out: IC50 growth, 2 days later
[18] = 2.5 mg/kg/day, intraperitoneal, 10 consecutive days

SMILES | IC50 (L1210 leukemia cells [1]; [16]) | IC50 (L1210 leukemia cells [1]; [17]) | MIC [2] | MIC [3] | MIC [4] | MIC (Escherichia coli NIHJ) | MIC (Candida albicans 3147) | MIC [5] | MIC (Sarcina lutea PCI 1001) | MIC [6] | MIC [7] | MIC [8] | MIC [9] | MIC [10] | MIC (Microccus flavus FDA 16) | MIC [11] | IC50 [13] | IC90 [13] | IC50 [14] | IC90 [14] | further results
CC(=O)[C@@]1(O)Cc2cc3c(c(O)c2[C@H](O[C@H]2C[C@H](N)[C@H](O)[C@H](C)O2)C1)C(=O)c1ccccc1C3=O (single isomer, unassigned; isomer 4) [4-Demethoxy-11-deoxy-daunomycin (7R,9R,1'α)isomer, 4-Demethoxy-11-deoxydaunomycin] | > 2.5 µg/mL | > 2.5 µg/mL | 100 µg/mL (≈ 208 µM) | 100 µg/mL (≈ 208 µM) | > 100 µg/mL | > 100 µg/mL | > 100 µg/mL | 50 µg/mL (≈ 104 µM) | 50 µg/mL (≈ 104 µM) | 100 µg/mL (≈ 208 µM) | 50 µg/mL (≈ 104 µM) | > 100 µg/mL | > 100 µg/mL | > 100 µg/mL | > 100 µg/mL | > 100 µg/mL | 5.4 µg/mL (≈ 11.2 µM) | 13 µg/mL (≈ 27 µM) | 9 µg/mL (≈ 18.7 µM) | > 10 µg/mL | MIC (Bacillus megatherium APF): 50 µg/mL (≈ 104 µM); MIC [12]: > 100 µg/mL; MIC (Salmonella typhi T - 63): > 100 µg/mL
C[C@@H]1O[C@@H](O[C@H]2C[C@](O)(C(=O)CO)Cc3cc4c(c(O)c32)C(=O)c2ccccc2C4=O)C[C@H](N)[C@@H]1O (single isomer, unassigned; isomer 4) [4-Demethoxy-11-deoxy-adriamycin (7S,9S,1'α)isomer, 4-Demethoxy-11-deoxyadriamycin] | 0.07 µg/mL (≈ 0.141 µM) | 0.03 µg/mL (≈ 0.0603 µM) | 12.5 µg/mL (≈ 25.1 µM) | 100 µg/mL (≈ 201 µM) | > 100 µg/mL | > 100 µg/mL | > 100 µg/mL | 12.5 µg/mL (≈ 25.1 µM) | 100 µg/mL (≈ 201 µM) | 12.5 µg/mL (≈ 25.1 µM) | 25 µg/mL (≈ 50.3 µM) | 100 µg/mL (≈ 201 µM) | 12.5 µg/mL (≈ 25.1 µM) | 50 µg/mL (≈ 101 µM) | 50 µg/mL (≈ 101 µM) | > 100 µg/mL | 0.64 µg/mL (≈ 1.29 µM) | 5.6 µg/mL (≈ 11.3 µM) | 0.8 µg/mL (≈ 1.61 µM) | 4.6 µg/mL (≈ 9.25 µM) | Survival rate (T/C, %) (L1210 leukemia cells [15]; 0.15 mg/kg/day, intraperitoneal, 10 consecutive days): 135%; Survival rate (T/C, %) (L1210 leukemia cells [15]; 0.3 mg/kg/day, intraperitoneal, 10 consecutive days): 162%; Survival rate (T/C, %) (L1210 leukemia cells [15]; 0.6 mg/kg/day, intraperitoneal, 10 consecutive days): 184%; Survival rate (T/C, %) (L1210 leukemia cells [15]; 1.25 mg/kg/day, intraperitoneal, 10 consecutive days): 308%; Survival rate (T/C, %) (L1210 leukemia cells [15]; [18]): 177%; Toxicity (L1210 leukemia cells [15]; [18]): *; antitumor activity on experimental animal tumors (in words) (L1210 leukemia cells [15]; experimental animal tumors): particularly noteworthy; MIC (Bacillus megatherium APF): 12.5 µg/mL (≈ 25.1 µM); MIC [12]: > 100 µg/mL; MIC (Salmonella typhi T - 63): > 100 µg/mL

Continued, in another order:

IC50 (L1210 leukemia cells [1]; [16]) | SMILES | IC50 (L1210 leukemia cells [1]; [17]) | MIC [2] | MIC [3] | MIC [4] | MIC (Escherichia coli NIHJ) | MIC (Candida albicans 3147) | MIC [5] | MIC (Sarcina lutea PCI 1001) | MIC [6] | MIC [7] | MIC [8] | MIC [9] | MIC [10] | MIC (Microccus flavus FDA 16) | MIC [11] | IC50 [13] | IC90 [13] | IC50 [14] | IC90 [14] | further results
0.005 µg/mL (≈ 0.00948 µM) | COc1cccc2c1C(=O)c1c(cc3c(c1O)[C@@H](O[C@H]1C[C@H](N)[C@H](O)[C@H](C)O1)C[C@](O)(C(=O)CO)C3)C2=O [11-Deoxy-adriamycin, reference compound] | – | – | – | – | – | – | – | – | – | – | – | – | – | – | – | – | – | – | – | –
0.01 µg/mL (≈ 0.0201 µM) | CC(=O)[C@]1(O)Cc2c(O)c3c(c(O)c2[C@@H](O[C@H]2C[C@H](N)[C@H](O)[C@H](C)O2)C1)C(=O)c1ccccc1C3=O [4-Demethoxy-daunomycin, reference compound] | 0.005 µg/mL (≈ 0.0101 µM) | – | – | – | – | – | – | – | – | – | – | – | – | – | – | 0.08 µg/mL (≈ 0.161 µM) | 1.2 µg/mL (≈ 2.41 µM) | 0.14 µg/mL (≈ 0.281 µM) | 1.4 µg/mL (≈ 2.81 µM) | –
1.4 µg/mL (≈ 2.91 µM) | CC(=O)[C@]1(O)Cc2cc3c(c(O)c2[C@@H](O[C@@H]2C[C@H](N)[C@H](O)[C@H](C)O2)C1)C(=O)c1ccccc1C3=O (single isomer, unassigned; isomer 4) [4-Demethoxy-11-deoxy-daunomycin (7S,9S,1'β)isomer, 4-Demethoxy-11-deoxydaunomycin] | 0.51 µg/mL (≈ 1.06 µM) | – | – | – | – | – | – | – | – | – | – | – | – | – | – | 3.1 µg/mL (≈ 6.44 µM) | 15 µg/mL (≈ 31.2 µM) | 5.4 µg/mL (≈ 11.2 µM) | 14 µg/mL (≈ 29.1 µM) | –
